# Results taken from ChEMBL document CHEMBL6103615, “Thymidylate Kinase-Targeted Antimicrobial Peptides via Phage Display: A Novel Strategy against Gram-Negative Bacteria” (J Med Chem, 2025).
# Active and inactive are the calls of the source. No cut-off for these calls is given here.
# What was measured:
# [1] = system: Lacticaseibacillus rhamnosus; assay: Antibacterial activity against Lactobacillus rhamnosus 7469 incubated for 12 to 18 hrs by microbroth dilution method; assay type: functional; settings: time 12-18 hrs
# [2] = Selectivity ratio of MIC for antibacterial activity against Lactococcus lactis NZ9000 to MIC for antibacterial activity against Escherichia coli K88; assay type: functional
# [3] = Toxicity in ICR mouse assessed as change in spleen index at 10 to 40 mg/kg, ip treated for 3 days consecutively; assay type: organism-based; settings: in vivo, 72 h, dose 10-40 mg/kg, time 3 day
# Escherichia coli [4] = assay: Antibacterial activity against Escherichia coli K88 infected in ICR mouse model of peritoneal sepsis assessed as reduction in edema in renal tubular epithelial cells at 20 mg/kg, ip measured after 10 hrs by H and E staining based analysis; assay type: functional, organism-based
# Bacteria [5] = assay: Antibacterial activity against bacterial cells at pH 12; assay type: functional
# Escherichia coli [6] = assay: Induction of ROS generation in Escherichia coli K88 assessed as increase in fluorescence intensity incubated for 1 hr by DCFH-DA dye based analysis; assay type: functional, organism-based
# Escherichia coli [7] = assay: Antibacterial activity against Escherichia coli K88 infected in ICR mouse model of peritoneal sepsis assessed as reduction in blood IL-6 level at 20 mg/kg, ip measured after 10 hrs; assay type: functional, organism-based
# [8] = Toxicity in ICR mouse assessed as change in serum ALP level at 10 to 40 mg/kg, ip treated for 3 days consecutively; assay type: organism-based; settings: in vivo, 72 h, dose 10-40 mg/kg, time 3 day
# Escherichia coli [9] = assay: Antibacterial activity against Escherichia coli K88 infected in ICR mouse model of peritoneal sepsis assessed as reduction in granulocyte infiltration in spleen at 20 mg/kg, ip measured after 10 hrs by H and E staining based analysis; assay type: functional, organism-based
# Bacteria [10] = assay: Antibacterial activity against bacterial cells at pH 2; assay type: functional
# [11] = Toxicity in ICR mouse assessed as change in serum ALT level at 10 to 40 mg/kg, ip treated for 3 days consecutively; assay type: organism-based; settings: in vivo, 72 h, dose 10-40 mg/kg, time 3 day
# [12] = Selectivity ratio of MIC for antibacterial activity against Staphylococcus epidermidis 12228 to MIC for antibacterial activity against Escherichia coli K91; assay type: functional
# [13] = system: Staphylococcus epidermidis; assay: Antibacterial activity against Staphylococcus epidermidis 12228 incubated for 12 to 18 hrs by microbroth dilution method; assay type: functional; settings: time 12-18 hrs
# Escherichia coli [14] = assay: Antibacterial activity against Escherichia coli K99 incubated for 12 to 18 hrs by microbroth dilution method; assay type: functional; settings: time 12-18 hrs
# [15] = Effect on secondary structure of compound in PBS assessed as formation of alpha-helical conformation at 100 uM by CD analysis; assay type: physicochemical; settings: buffer
# Escherichia coli [16] = assay: Induction of outer membrane permeability in Escherichia coli K88 assessed as NPN leakage; assay type: functional, organism-based; settings: dose 1-32 µM
# Lactococcus lactis = assay: Antibacterial activity against Lactococcus lactis NZ9000 incubated for 12 to 18 hrs by microbroth dilution method; assay type: functional; settings: time 12-18 hrs
# Salmonella typhimurium = assay: Antibacterial activity against Salmonella typhimurium 7731 incubated for 12 to 18 hrs by microbroth dilution method; assay type: functional, Salmonella enterica subsp. enterica serovar Typhimurium; settings: Salmonella enterica, time 12-18 hrs
# [17] = Selectivity ratio of MIC for antibacterial activity against Lactobacillus rhamnosus 7469 to MIC for antibacterial activity against Escherichia coli K89; assay type: functional
# Escherichia coli [18] = assay: Antibacterial activity against Escherichia coli K88 infected in ICR mouse model of peritoneal sepsis assessed as reduction in vascular bruising in liver at 20 mg/kg, ip measured after 10 hrs by H and E staining based analysis; assay type: functional, organism-based
# Escherichia coli [19] = assay: Antibacterial activity against Escherichia coli K88 infected in ICR mouse model of peritoneal sepsis assessed as reduction in granulocyte infiltration in lungs at 20 mg/kg, ip measured after 10 hrs by H and E staining based analysis; assay type: functional, organism-based
# Escherichia coli [20] = assay: Antibacterial activity against Escherichia coli K88 infected in ICR mouse model of peritoneal sepsis assessed as reduction in necrosis in renal tubular epithelial cells at 20 mg/kg, ip measured after 10 hrs by H and E staining based analysis; assay type: functional, organism-based
# Escherichia coli [21] = assay: Disruption of membrane integrity in Escherichia coli K88 at 2 uM by PI staining based flow cytometry (reference value: 0.1 %); assay type: functional
# Escherichia coli [22] = assay: Antibacterial activity against Escherichia coli K88 infected in ICR mouse model of peritoneal sepsis assessed as bacterial load reduction in lung at 20 mg/kg, ip measured after 10 hrs; assay type: functional, organism-based
# Bacteria [23] = assay: Antibacterial activity against bacterial cells at 1 to 128 uM in presence of CaCl; assay type: functional, organism-based; settings: dose 1-128 µM
# Staphylococcus aureus = assay: Antibacterial activity against Staphylococcus aureus 29213 incubated for 12 to 18 hrs by microbroth dilution method; assay type: functional; settings: time 12-18 hrs
# [24] = Hemolytic activity against human red blood cells at 2 to 128 uM relative to control; assay type: toxicity, cell-based, Erythrocyte; settings: dose 2-128 µM, read-out: Activity
# [25] = Toxicity in ICR mouse assessed as impaired mobility at 40 mg/kg, ip measured for 30 to 4 hrs; assay type: organism-based; settings: in vivo, time 30-4 hrs
# Enterococcus faecalis = assay: Antibacterial activity against Enterococcus faecalis 29212 incubated for 12 to 18 hrs by microbroth dilution method; assay type: functional; settings: time 12-18 hrs
# [26] = Selectivity ratio of MIC for antibacterial activity against Escherichia coli K99 to MIC for antibacterial activity against Escherichia coli K102; assay type: functional
# Pseudomonas aeruginosa = assay: Antibacterial activity against Pseudomonas aeruginosa PAO1 incubated for 12 to 18 hrs by microbroth dilution method; assay type: functional; settings: time 12-18 hrs
# [27] = Selectivity ratio of MIC for antibacterial activity against Salmonella typhimurium 7731 to MIC for antibacterial activity against Escherichia coli K98; assay type: functional
# Escherichia coli [28] = assay: Antibacterial activity against Escherichia coli K88 infected in ICR mouse model of peritoneal sepsis assessed as reduction in vacuolar degeneration of hepatocytes at 20 mg/kg, ip measured after 10 hrs by H and E staining based analysis; assay type: functional, organism-based
# Escherichia coli [29] = assay: Induction of morphological changes in Escherichia coli K88 assessed as membrane permeability at edges at 2 uM incubated for 1 hr by TEM analysis; assay type: functional, organism-based
# Escherichia coli [30] = assay: Antibacterial activity against Escherichia coli K88 infected in ICR mouse model of peritoneal sepsis assessed as reduction in alveolar wall thickening in lungs at 20 mg/kg, ip measured after 10 hrs by H and E staining based analysis; assay type: functional, organism-based
# Escherichia coli [31] = assay: Induction of cytoplasmic membrane depolarization in Escherichia coli K88 at 2 uM by DiSC3-5 dye based analysis; assay type: functional, organism-based
# Escherichia coli [32] = assay: Antibacterial activity against Escherichia coli K88 infected in ICR mouse model of peritoneal sepsis assessed as bacterial load reduction in liver at 20 mg/kg, ip measured after 10 hrs; assay type: functional, organism-based
smiles,measurement,setting,value
CC[C@@H](C)[C@H](NC(=O)CNC(=O)[C@@H]1CCCN1C(=O)[C@H](CCCCN)NC(=O)[C@H](Cc1c[nH]c2ccccc12)NC(=O)[C@@H](NC(=O)[C@H](CCCCN)NC(=O)[C@H](CCCCN)NC(=O)[C@H](Cc1c[nH]c2ccccc12)NC(=O)[C@H](Cc1ccc(O)cc1)NC(=O)[C@H](CCCCN)NC(=O)[C@@H](NC(=O)[C@H](CC(C)C)NC(=O)[C@H](CC(N)=O)NC(=O)CNC(=O)[C@@H](N)CO)[C@@H](C)O)[C@@H](C)CC)C(=O)N[C@@H](CCCCN)C(=O)N[C@@H](CCCCN)C(=O)N[C@@H](Cc1c[nH]c2ccccc12)C(=O)N[C@H](C(=O)N[C@@H](CCCCN)C(=O)O)[C@H](C)CC,MIC,[1],128 µM
same,Ratio,[2],>2
same,Activity,[3],Non-toxic
same,Activity,Escherichia coli [4],Active
same,MIC,Bacteria [5],4 µM
same,Activity,Escherichia coli [6],Dose-dependent-effect
same,Activity,Escherichia coli [7],Active
same,Activity,[8],Non-toxic
same,Activity,Escherichia coli [9],Active
same,MIC,Bacteria [10],4 µM
same,Activity,[11],Non-toxic
same,Ratio,[12],>2
same,MIC,[13],128 µM
same,MIC,Escherichia coli [14],4 µM
same,Activity,[15],Active
same,Activity,Escherichia coli [16],Dose-dependent-effect
same,MIC,Lactococcus lactis,128 µM
same,MIC,Salmonella typhimurium,4 µM
same,Ratio,[17],>2
same,Activity,Escherichia coli [18],Active
same,Activity,Escherichia coli [19],Active
same,Activity,Escherichia coli [20],Active
same,Activity,Escherichia coli [21],96.8%
same,Activity,Escherichia coli [22],Active; Activity Comparable To Colistin Treatment
same,Activity,Bacteria [23],inactive
same,MIC,Staphylococcus aureus,128 µM
same,hemolysis at up to 128 µM,[24],< 5%
same,Activity,[25],Toxic
same,MIC,Enterococcus faecalis,128 µM
same,Ratio,[26],>2
same,MIC,Pseudomonas aeruginosa,4 µM
same,Ratio,[27],>2
same,Activity,Escherichia coli [28],Active
same,Activity,Escherichia coli [29],Active
same,Activity,Escherichia coli [30],Active
same,Activity,Escherichia coli [31],Active
same,Activity,Escherichia coli [32],Active; Activity Comparable To Colistin Treatment
